Laboratory results published in publication PMC9533460 (RSC Chemical Biology, 2022).

Key:
[1] = target: T1, homoserine-dehydrogenase (HD) (Pseudomonas alvandae, UniProt P0DXC5); test: NADH formation; type: biochemical; conditions: homoserine as co-substrate
T1 sequence (P0DXC5 1-352): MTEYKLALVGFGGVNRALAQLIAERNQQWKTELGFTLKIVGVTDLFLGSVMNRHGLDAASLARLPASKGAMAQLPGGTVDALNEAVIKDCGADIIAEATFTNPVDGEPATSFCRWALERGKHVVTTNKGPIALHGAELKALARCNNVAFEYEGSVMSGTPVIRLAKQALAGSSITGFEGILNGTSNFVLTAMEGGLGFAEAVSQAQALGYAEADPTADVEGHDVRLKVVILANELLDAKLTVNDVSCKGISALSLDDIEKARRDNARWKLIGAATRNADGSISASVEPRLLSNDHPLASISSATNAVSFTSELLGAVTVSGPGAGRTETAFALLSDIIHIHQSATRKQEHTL

[2] = target: T2, canavanine-γ-lyase (CanγL); aminotransferase AT (Pseudomonas alvandae, UniProt P0DXC4); test: UV/Vis spectra of the enzyme reaction; type: binding; conditions: covalent (internal aldimine with K213); canavanine as substrate
T2 sequence (P0DXC4 1-400): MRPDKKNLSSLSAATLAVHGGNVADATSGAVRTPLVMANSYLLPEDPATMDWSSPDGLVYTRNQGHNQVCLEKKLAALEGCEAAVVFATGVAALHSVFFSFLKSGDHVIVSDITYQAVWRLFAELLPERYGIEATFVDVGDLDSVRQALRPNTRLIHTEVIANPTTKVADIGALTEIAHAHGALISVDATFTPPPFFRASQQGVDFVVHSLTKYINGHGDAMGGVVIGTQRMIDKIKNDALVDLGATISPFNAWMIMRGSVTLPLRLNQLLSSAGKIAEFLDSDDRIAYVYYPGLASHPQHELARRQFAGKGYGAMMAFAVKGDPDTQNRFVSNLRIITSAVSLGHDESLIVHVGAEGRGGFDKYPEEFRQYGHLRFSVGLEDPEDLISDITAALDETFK

[3] = target: T3, aldehyde-dehydrogenase 2 (AC) (Pseudomonas alvandae, UniProt P0DXC6); test: 1H-NMR of coupled reaction homoserine to fumarate; type: biochemical; conditions: aspartate semialdehyde formed in situ from homoserine by HD; with AAL
T3 sequence (P0DXC6 1-485): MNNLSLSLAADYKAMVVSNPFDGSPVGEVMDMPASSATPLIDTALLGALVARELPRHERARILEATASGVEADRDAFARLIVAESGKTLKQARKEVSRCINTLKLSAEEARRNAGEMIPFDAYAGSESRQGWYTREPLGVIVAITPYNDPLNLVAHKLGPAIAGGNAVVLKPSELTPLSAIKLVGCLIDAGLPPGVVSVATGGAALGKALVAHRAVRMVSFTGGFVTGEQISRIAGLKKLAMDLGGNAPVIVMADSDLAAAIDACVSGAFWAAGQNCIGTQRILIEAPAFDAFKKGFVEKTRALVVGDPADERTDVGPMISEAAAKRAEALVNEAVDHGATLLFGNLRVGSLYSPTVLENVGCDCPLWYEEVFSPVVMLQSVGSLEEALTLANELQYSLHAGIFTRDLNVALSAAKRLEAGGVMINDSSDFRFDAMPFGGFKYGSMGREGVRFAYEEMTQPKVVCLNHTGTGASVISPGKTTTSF

[4] = target: T4, aldehyde-dehydrogenase 1 (AH) (Pseudomonas alvandae, UniProt P0DXC7); test: 1H-NMR of coupled reaction homoserine to fumarate; type: biochemical; conditions: aspartate semialdehyde formed in situ from homoserine by HD; with AAL
T4 sequence (P0DXC7 1-470): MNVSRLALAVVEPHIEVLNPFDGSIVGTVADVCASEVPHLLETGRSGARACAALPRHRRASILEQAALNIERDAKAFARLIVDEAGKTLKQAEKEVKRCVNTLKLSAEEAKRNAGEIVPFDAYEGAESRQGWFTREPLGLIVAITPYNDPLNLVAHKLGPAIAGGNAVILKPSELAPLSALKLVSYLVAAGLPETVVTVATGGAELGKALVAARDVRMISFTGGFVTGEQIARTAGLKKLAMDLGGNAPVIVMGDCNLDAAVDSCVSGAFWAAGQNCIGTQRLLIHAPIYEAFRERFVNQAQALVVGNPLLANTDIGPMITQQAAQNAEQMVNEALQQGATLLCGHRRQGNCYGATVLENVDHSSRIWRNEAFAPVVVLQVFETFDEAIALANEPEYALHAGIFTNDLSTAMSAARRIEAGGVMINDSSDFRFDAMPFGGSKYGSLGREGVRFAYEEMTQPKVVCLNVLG

[5] = target: T5, ammonium–aspartate–lyase (AAL) (Pseudomonas alvandae, UniProt P0DXC8); test: 1H-NMR of coupled reaction homoserine to fumarate; type: biochemical; conditions: aspartate formed in situ by HD with AH or AC
T5 sequence (P0DXC8 1-474): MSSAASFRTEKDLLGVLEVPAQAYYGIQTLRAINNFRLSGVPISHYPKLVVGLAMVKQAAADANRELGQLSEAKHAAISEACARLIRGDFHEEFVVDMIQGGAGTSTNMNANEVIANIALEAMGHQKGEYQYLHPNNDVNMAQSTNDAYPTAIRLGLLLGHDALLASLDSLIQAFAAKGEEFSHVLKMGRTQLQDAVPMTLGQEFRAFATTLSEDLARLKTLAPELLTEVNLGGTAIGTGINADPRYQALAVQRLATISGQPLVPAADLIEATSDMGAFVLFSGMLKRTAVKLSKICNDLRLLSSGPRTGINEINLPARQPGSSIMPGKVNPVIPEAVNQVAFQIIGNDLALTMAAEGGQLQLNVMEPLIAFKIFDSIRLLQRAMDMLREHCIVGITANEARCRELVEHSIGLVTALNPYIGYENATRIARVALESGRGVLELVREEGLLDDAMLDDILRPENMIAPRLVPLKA

[6] = target: T1, homoserine-dehydrogenase (HD); test: NADH formation; type: biochemical; conditions: NAD+ as co-substrate

NC(=O)c1ccc[n+]([C@@H]2O[C@H](COP(=O)(O)OP(=O)(O)OC[C@H]3O[C@@H](n4cnc5c(N)ncnc54)[C@H](O)[C@@H]3O)[C@@H](O)[C@H]2O)c1 [NAD+]
NADH formation [1]: the reaction of HD was only dependent on the cofactor NAD^+

Cc1ncc(COP(=O)(O)O)c(C=O)c1O [PLP]
UV/Vis spectra of the enzyme reaction; K213A comparison [2]: Time-dependent increase of presumed aldimine and quinonoid peaks were observed for the wt enzyme

N[C@@H](CC=O)C(=O)O [aspartate semialdehyde]
1H-NMR of coupled reaction homoserine to fumarate [3]: purified HD with either of the two aldehyde-dehydrogenases AH or AC and AAL | 1H-NMR of coupled reaction homoserine to fumarate [4]: purified HD with either of the two aldehyde-dehydrogenases AH or AC and AAL

N[C@@H](CC(=O)O)C(=O)O [aspartate]
1H-NMR of coupled reaction homoserine to fumarate [5]: AH or AC and AAL the formation of fumarate via aspartate was observed

N[C@@H](CCO)C(=O)O [homoserine]
NADH formation; 1H-NMR of the coupled reaction [6]: homoserine-dehydrogenase (HD) which catalyzes the conversion of homoserine and NAD+
